Measurements taken from ChEMBL document CHEMBL1201862, “PubChem BioAssay data set” (2004).
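Where inhibition never reached the appropriate level, the endpoint shown equals the highest concentration tested. Otherwise, values were interpolated linearly from a five-concentration, 48-hour dose response in 96-well plates. Abbreviation: GI50, concentration required for 50% inhibition of growth.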 The source made the active and inactive calls. No stated cut-off is given here; in the data, active = GI50 up to about 1.1 µM and inactive = higher.

Assays:
Assay in all cases: NCI-60 cell line screen, 48 h
XF498 = system: XF498
UACC-62 = system: UACC-62
M14 = system: M14
OVCAR-8 = system: OVCAR-8
SN12C = system: SN12C
COLO 205 = system: COLO 205
HCC 2998 = system: HCC 2998
OVCAR-3 = system: OVCAR-3
CCRF-CEM = system: CCRF-CEM
M19-MEL = system: M19-MEL
KM12 = system: KM12
IGROV-1 = system: IGROV-1
HCT-15 = system: HCT-15
LOX IMVI = system: LOX IMVI
UACC-257 = system: UACC-257
CAKI-1 = system: CAKI-1
EKVX = system: EKVX
NCI-H23 = system: NCI-H23
SK-OV-3 = system: SK-OV-3
LXFL 529 = system: LXFL 529
RPMI-8226 = system: RPMI-8226
SK-MEL-5 = system: SK-MEL-5
SF-539 = system: SF-539
HOP-92 = system: HOP-92
MOLT-4 = system: MOLT-4
TK-10 = system: TK-10
NCI-H522 = system: NCI-H522
OVCAR-4 = system: OVCAR-4
SK-MEL-28 = system: SK-MEL-28
DMS-273 = system: DMS-273
HL-60 = system: HL-60
HT-29 = system: HT-29
NCI-H226 = system: NCI-H226
A549 = system: A549
SW-620 = system: SW-620
DMS-114 = system: DMS-114
SNB-75 = system: SNB-75
K562 = system: K562
SNB-78 = system: SNB-78
OVCAR-5 = system: OVCAR-5
786-0 = system: 786-0
UO-31 = system: UO-31
ACHN = system: ACHN
HOP-62 = system: HOP-62
SK-MEL-2 = system: SK-MEL-2
HCT-116 = system: HCT-116
U-251 = system: U-251
HOP-18 = system: HOP-18
KM-20L2 = system: KM-20L2
NCI-H460 = system: NCI-H460
DLD-1 = system: DLD-1
Malme-3M = system: Malme-3M
SF-268 = system: SF-268
RXF 393 = system: RXF 393
SF-295 = system: SF-295
SR = system: SR
SNB-19 = system: SNB-19
A498 = system: A498

Measured: GI50

CCN(CC)CSc1nc2ccccc2s1
> 100 µM: HCT-15
inactive: XF498 > 100 µM | UACC-62 > 100 µM | M14 > 100 µM | OVCAR-8 > 100 µM | SN12C > 100 µM | COLO 205 > 100 µM | HCC 2998 > 100 µM | OVCAR-3 > 100 µM | CCRF-CEM > 100 µM | M19-MEL > 100 µM | KM12 > 100 µM | IGROV-1 > 100 µM | LOX IMVI > 100 µM | UACC-257 > 100 µM | CAKI-1 > 100 µM | EKVX > 100 µM | NCI-H23 > 100 µM | SK-OV-3 > 100 µM | LXFL 529 > 100 µM | RPMI-8226 > 100 µM | SK-MEL-5 > 100 µM | SF-539 > 100 µM | HOP-92 > 100 µM | MOLT-4 > 100 µM | TK-10 > 100 µM | NCI-H522 > 100 µM | OVCAR-4 > 100 µM | SK-MEL-28 > 100 µM | DMS-273 > 100 µM | HL-60 > 100 µM | HT-29 > 100 µM | NCI-H226 > 100 µM | A549 > 100 µM | SW-620 > 100 µM | DMS-114 > 100 µM | SNB-75 > 100 µM | K562 > 100 µM | SNB-78 > 100 µM

O=C(CSc1nnc(Cc2ccccc2)o1)Nc1cccc([N+](=O)[O-])c1
> 100 µM: HCT-15
inactive: UACC-62 > 100 µM | M14 > 100 µM | OVCAR-8 > 100 µM | SN12C > 100 µM | COLO 205 > 100 µM | HCC 2998 > 100 µM | OVCAR-3 > 100 µM | OVCAR-5 > 100 µM | CCRF-CEM > 100 µM | 786-0 > 100 µM | M19-MEL > 100 µM | UO-31 > 100 µM | KM12 > 100 µM | IGROV-1 > 100 µM | LOX IMVI > 100 µM | UACC-257 > 100 µM | NCI-H23 > 100 µM | ACHN > 100 µM | HOP-62 > 100 µM | SK-OV-3 > 100 µM | SK-MEL-2 > 100 µM | HCT-116 > 100 µM | LXFL 529 > 100 µM | RPMI-8226 > 100 µM | U-251 > 100 µM | SK-MEL-5 > 100 µM | SF-539 > 100 µM | MOLT-4 > 100 µM | TK-10 > 100 µM | HOP-18 > 100 µM | NCI-H522 > 100 µM | KM-20L2 > 100 µM | OVCAR-4 > 100 µM | NCI-H460 > 100 µM | SK-MEL-28 > 100 µM | DMS-273 > 100 µM | HL-60 > 100 µM | DLD-1 > 100 µM | HT-29 > 100 µM | NCI-H226 > 100 µM | Malme-3M > 100 µM | A549 > 100 µM | SF-268 > 100 µM | DMS-114 > 100 µM | SNB-75 58.5 µM | K562 > 100 µM | RXF 393 > 100 µM | SF-295 > 100 µM | SNB-78 > 100 µM

Cc1ccc(-c2cc(O)c3cc4c(cc3n2)OCO4)cc1
0.501 µM: HCT-15
active: UACC-62 0.729 µM | M14 0.817 µM | COLO 205 0.63 µM | OVCAR-3 0.929 µM | CCRF-CEM 1.05 µM | SR 0.973 µM | M19-MEL 0.805 µM | KM12 0.836 µM | NCI-H23 0.916 µM | LXFL 529 0.748 µM | SK-MEL-5 0.35 µM | NCI-H460 0.82 µM | HL-60 0.43 µM | DLD-1 0.859 µM | Malme-3M 0.52 µM | SW-620 0.482 µM | A498 0.615 µM | K562 0.705 µM
inactive: OVCAR-8 3.2 µM | SN12C 2.56 µM | HCC 2998 1.42 µM | OVCAR-5 2.61 µM | 786-0 1.78 µM | UO-31 > 21.3 µM | IGROV-1 3.48 µM | LOX IMVI 2.67 µM | SNB-19 3.12 µM | UACC-257 > 100 µM | CAKI-1 3.52 µM | EKVX 4.05 µM | ACHN 7.67 µM | HOP-62 2.25 µM | SK-OV-3 1.45 µM | SK-MEL-2 1.72 µM | HCT-116 1.24 µM | RPMI-8226 2.13 µM | U-251 1.59 µM | SF-539 1.31 µM | HOP-92 1.87 µM | MOLT-4 2.72 µM | TK-10 7.66 µM | HOP-18 3.07 µM | NCI-H522 1.63 µM | KM-20L2 1.67 µM | OVCAR-4 8.97 µM | SK-MEL-28 2.67 µM | DMS-273 1.35 µM | HT-29 2.18 µM | NCI-H226 1.63 µM | A549 2.02 µM | SF-268 2.96 µM | DMS-114 2.48 µM | SNB-75 1.37 µM | RXF 393 1.44 µM | SF-295 2.02 µM

CC(=O)CCC#Cc1ccccc1C(=O)C(C)=[N+]=[N-]
inactive: XF498 20.5 µM | UACC-62 16.1 µM | M14 20.3 µM | OVCAR-8 42.8 µM | SN12C 49.1 µM | COLO 205 14.9 µM | HCC 2998 > 100 µM | OVCAR-3 28.5 µM | OVCAR-5 > 100 µM | CCRF-CEM 6.08 µM | UO-31 44.4 µM | KM12 45 µM | IGROV-1 30 µM | LOX IMVI 32.2 µM | SNB-19 > 100 µM | UACC-257 53 µM | EKVX 81.8 µM | NCI-H23 36.1 µM | ACHN 39.5 µM | HOP-62 71.3 µM | SK-OV-3 57.7 µM | SK-MEL-2 72.3 µM | HCT-116 13 µM | RPMI-8226 17.4 µM | U-251 36.8 µM | SK-MEL-5 15.4 µM | SF-539 97.3 µM | HOP-92 38 µM | MOLT-4 19.8 µM | TK-10 > 100 µM | HOP-18 97.1 µM | KM-20L2 79.1 µM | OVCAR-4 50.9 µM | NCI-H460 37.4 µM | SK-MEL-28 18.2 µM | DMS-273 26.4 µM | HL-60 13.2 µM | DLD-1 79.8 µM | HT-29 44.8 µM | NCI-H226 48.5 µM | Malme-3M 19.6 µM | A549 41 µM | SF-268 18.1 µM | SW-620 52.7 µM | DMS-114 12.9 µM | SNB-75 15.6 µM | A498 53.6 µM | K562 20.8 µM | RXF 393 23.6 µM | SF-295 45 µM
48.8 µM: HCT-15

N#CC(c1ccccn1)c1nc2ccccc2[nH]1 (centres undefined)
inactive: XF498 64.4 µM | UACC-62 70.3 µM | M14 > 100 µM | OVCAR-8 84.5 µM | SN12C > 100 µM | COLO 205 > 100 µM | HCC 2998 > 100 µM | OVCAR-3 > 100 µM | OVCAR-5 > 100 µM | CCRF-CEM > 100 µM | SR 38.5 µM | 786-0 97.5 µM | M19-MEL > 100 µM | UO-31 > 100 µM | SNB-19 > 100 µM | UACC-257 > 100 µM | CAKI-1 > 100 µM | EKVX > 100 µM | NCI-H23 > 100 µM | ACHN > 100 µM | HOP-62 > 100 µM | SK-OV-3 > 100 µM | SK-MEL-2 > 100 µM | HCT-116 98.4 µM | LXFL 529 > 100 µM | RPMI-8226 54 µM | U-251 > 100 µM | SK-MEL-5 > 100 µM | MOLT-4 47.5 µM | TK-10 > 100 µM | NCI-H522 > 100 µM | OVCAR-4 81.1 µM | NCI-H460 85.5 µM | SK-MEL-28 > 100 µM | HL-60 32.3 µM | DLD-1 98.9 µM | HT-29 > 100 µM | NCI-H226 > 100 µM | Malme-3M > 100 µM | A549 > 100 µM | SF-268 > 100 µM | SW-620 > 100 µM | DMS-114 51.5 µM | SNB-75 49.3 µM | A498 > 100 µM | K562 > 100 µM | SF-295 > 100 µM | SNB-78 > 100 µM
